Results published in article PMC6753678, “Fueling Open Innovation for Malaria Transmission-Blocking Drugs: Hundreds of Molecules Targeting Early Parasite Mosquito Stages” (Frontiers in Microbiology, 2019).
Like-named read-outs stand apart in the source and are kept apart here.

Experiments:
[1] = system: 3D7-strain P. falciparum asexual parasites; assay: P. falciparum asexual growth inhibition assay (Pf GIA); format: cell-based, Plasmodium falciparum; conditions: dose response confirmation; read-out: Pf asexual growth inhibition assays IC50
How it was run: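 Steps: seed parasites (0.25% parasitemia, 2% hematocrit) onto compound dilutions; incubate 72 h at 37°C, 5% O2/5% CO2; freeze at −70°C and thaw; add LDH reaction mix, read A650 after 10 min. Percent growth inhibition derived from chloroquine and DMSO controls, averaged over three biological replicates.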

[2] = system: HepG2 cells; assay: HepG2 cytotoxicity assay; conditions: for IC50: read-out: HepG2 cytotoxicity assay IC50, dose response confirmation; for Pb ODA (this manuscript) HepG2 cytoxicity: HepG2 cytotoxicity listed with the Pb ODA data set (this manuscript)
How it was run: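 Percent inhibition derived from fluorescent viability readout, normalised to DMSO (negative) and 50 μM doxorubicin (positive). Compound incubation lasted 48 h at 37°C, 5% CO2, with 2,500 HepG2 cells/well in MEM plus 10% FBS and 1% NEAA.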

[3] = system: P. berghei ookinete development; conditions: for % inhibition, Replicate A / % inhibition, Replicate B: primary screen at 1 μM
[4] = HepG2 values of the three screens unified
[5] = read-out: Pb ODA IC50, this manuscript
[6] = read-out: Pb Ookinete development assay IC50, dose response confirmation
[7] = read-out: Pb ODA (this manuscript) IC50, P. berghei ookinete development assay, this manuscript
[8] = unified HepG2 value across the three screens

Row | SMILES | IC50 [1] | Unified cytotox [2, 4] | IC50 [2] | Is compound selective in assay? Pb ODA active? ([3]; 1: YES, 0: NO) | % inhibition, Replicate A [3] | % inhibition, Replicate B [3] | IC50 [3, 5] | IC50 [3, 6] | Pb ODA (this manuscript) HepG2 cytoxicity [2] | Is compound selective in assay? Pb ODA active? [3] | IC50 [3, 7] | HepG2 cytoxicity (Pb ODA, this manuscript) [2] | Unified cytotox [2, 8]
1 | COc1ccc2nccc([C@@H](O)CN3CCC(NC(=O)c4ccc5cc[nH]c5c4)CC3)c2c1.CS(=O)(=O)O [TCMDC-140743] | 1.13 µM | 100.00 µM | 100 µM | 1 (1: YES) | 89.95% | 58.25% | 0.46 µM | 0.459 µM | – | – | – | – | –
2 | COc1ccc2nccc([C@@H](O)CN3CCC(NCc4cc5c(F)ccc(F)c5[nH]4)CC3)c2n1.CS(=O)(=O)O [TCMDC-140749] | 0.13 µM | – | 14.1 µM | – | 52.78% | 27.90% | – | 3.27 µM | 14.13 µM | 0 (key: 1: YES; 0: NO) | 3.27 µM | – | –
3 | COc1ccc2nccc([C@@H](O)CN3CCC(NCc4cc5ccccc5nc4O)CC3)c2c1.Cl [TCMDC-140759] | 0.431 µM | 48.98 µM | 49 µM | 1 (1: YES) | 50.79% | 52.50% | 2.01 µM | 2.01 µM | – | – | – | 48.98 µM | –
4 | O=C(NCc1ccco1)c1ccc(CN2CCN(C(c3ccccc3)c3ccccc3)CC2)cc1 [TCMDC-140763] | 1.26 µM | – | 52.5 µM | 1 (1: YES) | 50.96% | 28.39% | 1.48 µM | 1.48 µM | – | – | – | – | 52.48 µM
5 | COc1ccc2nccc([C@@H](O)CN3CCC(NC(=O)c4cc5ccccc5[nH]4)CC3)c2c1.CS(=O)(=O)O [TCMDC-140780] | 0.94 µM | 50.70 µM | 50.7 µM | 1 (1: YES) | 48.77% | 68.59% | 0.24 µM | 0.239 µM | – | – | – | 50.70 µM | –
6 | COc1ccc2nccc([C@@H](O)CN3CCC(NC(=O)c4cc5c(F)cc(F)cc5[nH]4)CC3)c2c1.CS(=O)(=O)O [TCMDC-140781] | 0.301 µM | 11.22 µM | 11.2 µM | 1 (1: YES) | 60.81% | 64.63% | 1 µM | 1 µM | – | – | – | 11.22 µM | –
7 | COc1ccc2nccc([C@@H](O)CN3CCC(NCc4ccc5c(c4)NC(=O)CO5)CC3)c2c1.Cl [TCMDC-140793] | 0.721 µM | – | 28.2 µM | – | 51.85% | 48.48% | – | 3.63 µM | 28.18 µM | 0 (key: 1: YES; 0: NO) | 3.63 µM | – | –
8 | COc1ccc2nccc([C@@H](O)CN3CCC(NC(=O)/C=C/c4c[nH]c5c(C)cccc45)CC3)c2c1 [TCMDC-141000] | 0.433 µM | 51.29 µM | 51.3 µM | 1 (1: YES) | 72.27% | 60.86% | 1.9 µM | 1.9 µM | – | – | – | 51.29 µM | –
9 | CN(C)CCN(C)C(=O)c1cc(-c2ccncc2)c(-c2ccc(Cl)c(O)c2)o1.Cl [TCMDC-141393] | 2.49 µM | – | 53.7 µM | 1 (1: YES) | 35.76% | 53.63% | 1.75 µM | 1.75 µM | – | – | – | – | 53.70 µM
10 | COc1ccc2nccc(NC(=O)C3(O)CCC(NCc4ccc5c(c4)NCCS5)CC3)c2n1.Cl (stereo not drawn) [TCMDC-141406] | 1.04 µM | – | 24.3 µM | – | 91.89% | 114.20% | – | 0.347 µM | 24.27 µM | 1 (key: 1: YES; 0: NO) | 0.35 µM | – | –
11 | CCN(CC)CCCNc1nccc(N(C)c2ccc(NC(=O)Nc3cc(C(F)(F)F)ccc3F)cc2)n1.O=C(O)C(F)(F)F [TCMDC-141634] | 0.811 µM | – | 2.75 µM | 0 (0: NO) | 55.58% | 13.78% | 9.02 µM | 9.02 µM | – | – | – | – | 2.75 µM
12 | COc1ccc2ncc(Cl)c(CCN3CCC(NCc4ccc5c(n4)NC(=O)CS5)CC3)c2c1.Cl [TCMDC-141807] | 0.379 µM | 15.49 µM | 15.5 µM | 1 (1: YES) | 68.31% | 67.95% | 1.34 µM | 1.34 µM | – | – | – | 15.49 µM | –
13 | COc1ccc2ncc(Cl)c(CCN3CCC(NCc4ccc5c(n4)NC(=O)CO5)CC3)c2c1.Cl [TCMDC-141808] | 0.014 µM | – | 1.29 µM | – | 43.21% | 70.93% | – | 1.22 µM | 1.29 µM | 0 (key: 1: YES; 0: NO) | – | – | –
14 | COc1ccc2nccc(N3CCC(CCNCc4ccc5c(n4)NC(=O)CS5)CC3)c2n1.Cl [TCMDC-141944] | 0.16 µM | 14.79 µM | 14.8 µM | 0 (0: NO) | 58.34% | 37.24% | 8.88 µM | 8.88 µM | – | – | – | 14.79 µM | –
15 | COc1c(F)ccc2ncc(Cl)c(CCN3CCC(NCc4ccc5c(n4)NC(=O)CS5)CC3)c12.Cl [TCMDC-141955] | 1.19 µM | 23.99 µM | 24 µM | 1 (1: YES) | 54.74% | 63.10% | 1.9 µM | 1.9 µM | – | – | – | 23.99 µM | –
16 | Cl.O=C1CSc2ccc(CNC3CCN(CCc4c(Cl)cnc5ccc(Cl)cc45)CC3)nc2N1 [TCMDC-141959] | 0.32 µM | 17.78 µM | 17.8 µM | 0 (0: NO) | 64.42% | 30.41% | 4.22 µM | 4.22 µM | – | – | – | 17.78 µM | –
17 | Cl.O=C1CSc2ccc(CNC3CCN(CCc4c(Cl)cnc5ccc(F)cc45)CC3)nc2N1 [TCMDC-141960] | 0.207 µM | 38.90 µM | 38.9 µM | 1 (1: YES) | 68.86% | 55.86% | 3.04 µM | 3.04 µM | – | – | – | 38.90 µM | –
18 | Nc1nc(N)c2c(ccc3c2ccn3Cc2ccccc2)n1 [TCMDC-141977] | 0.001 µM | 0.15 µM | 0.15 µM | 0 (0: NO) | 47.17% | 65.82% | 0.29 µM | 0.286 µM | – | – | – | 0.15 µM | –
